Assays:
[1] = biological target: T1, integrin α4β1 (Homo sapiens, UniProt P05556+P13612); test: VCAM antagonist activity (VCAM-1/α4β1 binding assay), Jurkat cells binding to VCAM-1; format: cell-based; conditions: Jurkat human T cells binding to recombinant human VCAM-1; read-out: VCAM antagonistic activity (IC50) α4β1
T1 construct: cell strain Jurkat (ATCC TIB-152) of human T cells, known to express integrin α4β1; endogenous in cells; host or cells: Jurkat (ATCC TIB-152)
Description: VCAM Antagonist Activity (VCAM-1/α4β1 Binding Assay)
The capacity of a test substance antagonistic to the binding of cell strain Jurkat (ATCC TIB-152) of human T cells, known to express integrin α4β1, to VCAM-1 was determined.
(§1) 100 μl/well of a solution (500 ng/ml) of recombinant human VCAM-1 (R & D systems) solution diluted with buffer A (0.1 M NaHCO3, pH 9.6) was added to a micro titer plate having 96 wells (Nunc Maxisorp). After the incubation at 4° C. overnight, unbound VCAM-1 was removed by washing once with PBS. After completion of the washing, a buffer (buffer B) obtained by diluting Block Ace (Dainippon Pharmaceutical Co., Ltd.) with PBS to ¼ concentration was added in an amount of 150 μl/well. After the incubation at room temperature for 1 hour, buffer B was removed and the plate was washed with PBS once.
Jurkat cells were washed with Dulbecco modified Eagle medium (SIGMA, hereinafter referred to as “DMEM”) twice and then incubated in DMEM containing 10 μg/ml of Calcein-AM (Wako Pure Chemical Industries, Ltd.) at 37° C. in dark place for 30 minutes to label with fluorescence. The cells were again suspended in a binding buffer (20 mM HEPES, DMEM containing 0.1% BSA).
(§2) 50 μl of a test substance of various concentrations obtained by the dilution with the binding buffer was added to the plate. Immediately thereafter, 50 μl (final volume: 100 μl/well) of the fluorescent Jurkat cells (4×10^6 cells/ml) were added thereto, and they were incubated in dark place at room temperature for 30 minutes. After the shaking on a plate shaker (IKA MTS-4) at 800 rpm for 30 seconds, the solution was immediately removed to remove the unbound cells. The fluorescence quantity of the bound cells remaining in the wells was determined with a fluorescent plate reader (Wallac 1920 ARVO multi-label counter) (filter excitation wave length: 485 nm, emission wave length: 535 nm). The fluorescent strength thus obtained is proportional to the number of Jurkat cells bound to VCAM-1 and remaining on the plate. The binding rate of each test material in various concentrations was determined while the fluorescent strength of the test material-free well was determined to be 100%.

[2] = biological target: T2, integrin α4β7 (Homo sapiens, UniProt P13612+P26010); test: VCAM antagonistic activity (VCAM-1/α4β7 binding assay), RPMI-8866 cells binding to VCAM-1; format: cell-based; conditions: RPMI-8866 human B lymphoma cells binding to recombinant human VCAM-1; binding buffer with 4 mM MnCl2
T2 construct: lymphoma cell strain RPMI-8866 of human B cells, known to express integrin α4β7; endogenous in cells; host or cells: RPMI-8866
T2 sequence (P13612 34-1032): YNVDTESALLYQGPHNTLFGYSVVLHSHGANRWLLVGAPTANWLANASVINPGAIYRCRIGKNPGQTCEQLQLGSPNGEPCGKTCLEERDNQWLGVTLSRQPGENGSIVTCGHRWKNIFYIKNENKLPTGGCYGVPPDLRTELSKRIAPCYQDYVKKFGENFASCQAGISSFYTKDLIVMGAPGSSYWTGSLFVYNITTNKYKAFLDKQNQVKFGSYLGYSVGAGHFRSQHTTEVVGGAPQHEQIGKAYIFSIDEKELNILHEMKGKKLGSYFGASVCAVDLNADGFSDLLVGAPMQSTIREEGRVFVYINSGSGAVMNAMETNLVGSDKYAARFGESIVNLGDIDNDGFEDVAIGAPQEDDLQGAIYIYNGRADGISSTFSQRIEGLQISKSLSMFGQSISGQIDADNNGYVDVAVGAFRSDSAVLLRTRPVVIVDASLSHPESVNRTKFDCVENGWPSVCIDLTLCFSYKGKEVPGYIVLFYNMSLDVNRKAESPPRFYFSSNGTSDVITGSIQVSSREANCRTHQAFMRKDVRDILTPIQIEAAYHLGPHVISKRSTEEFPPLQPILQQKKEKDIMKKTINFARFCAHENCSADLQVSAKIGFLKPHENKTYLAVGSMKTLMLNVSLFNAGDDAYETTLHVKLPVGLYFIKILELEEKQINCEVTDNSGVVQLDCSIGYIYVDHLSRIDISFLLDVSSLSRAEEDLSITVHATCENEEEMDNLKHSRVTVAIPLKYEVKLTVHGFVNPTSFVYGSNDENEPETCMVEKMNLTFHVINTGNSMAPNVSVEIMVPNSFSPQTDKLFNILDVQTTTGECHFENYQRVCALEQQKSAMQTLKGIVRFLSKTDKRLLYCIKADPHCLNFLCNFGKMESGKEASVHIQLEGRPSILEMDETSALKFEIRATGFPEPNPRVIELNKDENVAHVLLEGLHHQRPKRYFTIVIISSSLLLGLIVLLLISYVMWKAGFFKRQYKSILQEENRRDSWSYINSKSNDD
T2 sequence (P26010 20-798): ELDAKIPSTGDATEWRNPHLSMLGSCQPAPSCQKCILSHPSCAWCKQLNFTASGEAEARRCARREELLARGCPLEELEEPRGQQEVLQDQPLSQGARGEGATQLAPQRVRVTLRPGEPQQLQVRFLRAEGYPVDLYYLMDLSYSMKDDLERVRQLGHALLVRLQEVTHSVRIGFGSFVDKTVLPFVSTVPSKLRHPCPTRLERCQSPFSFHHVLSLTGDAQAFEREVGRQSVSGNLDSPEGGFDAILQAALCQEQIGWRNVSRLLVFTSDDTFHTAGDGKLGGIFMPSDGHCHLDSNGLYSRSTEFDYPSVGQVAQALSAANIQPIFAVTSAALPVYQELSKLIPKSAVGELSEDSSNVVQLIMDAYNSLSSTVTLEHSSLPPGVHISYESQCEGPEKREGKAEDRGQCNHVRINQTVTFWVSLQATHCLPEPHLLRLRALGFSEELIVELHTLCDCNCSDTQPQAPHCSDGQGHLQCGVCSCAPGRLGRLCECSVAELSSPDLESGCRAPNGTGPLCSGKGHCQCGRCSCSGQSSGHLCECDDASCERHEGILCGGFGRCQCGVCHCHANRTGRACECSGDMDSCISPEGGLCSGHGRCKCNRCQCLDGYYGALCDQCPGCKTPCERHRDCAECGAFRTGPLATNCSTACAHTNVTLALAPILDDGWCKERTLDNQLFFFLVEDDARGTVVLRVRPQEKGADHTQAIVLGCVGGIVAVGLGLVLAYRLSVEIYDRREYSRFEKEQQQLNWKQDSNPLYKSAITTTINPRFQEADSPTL
Description: VCAM Antagonistic Activity (VCAM-1/α4β7 Binding Assay)
The capacity of a test substance antagonistic to the binding of lymphoma cell strain RPMI-8866 of human B cells, known to express integrin α4β7, to VCAM-1 was determined.
as §1
RPMI-8866 cells were washed with DMEM twice and incubated in Dulbecco modified Eagle medium containing 10 μg/ml of Calcein-AM (Wako Pure Chemical Industries, Ltd.) (SIGMA, hereinafter referred to as “DMEM”) in dark place at 37° C. for 30 minutes to label with fluorescence. The cells were again suspended in a binding buffer (20 mM HEPES, DMEM containing 0.1% BSA) containing 4 mM of MnCl2.
as §2, with “RPMI-8866” for “Jurkat”, “1420” for “1920”

T1 sequence (P05556 21-798, one chain of several): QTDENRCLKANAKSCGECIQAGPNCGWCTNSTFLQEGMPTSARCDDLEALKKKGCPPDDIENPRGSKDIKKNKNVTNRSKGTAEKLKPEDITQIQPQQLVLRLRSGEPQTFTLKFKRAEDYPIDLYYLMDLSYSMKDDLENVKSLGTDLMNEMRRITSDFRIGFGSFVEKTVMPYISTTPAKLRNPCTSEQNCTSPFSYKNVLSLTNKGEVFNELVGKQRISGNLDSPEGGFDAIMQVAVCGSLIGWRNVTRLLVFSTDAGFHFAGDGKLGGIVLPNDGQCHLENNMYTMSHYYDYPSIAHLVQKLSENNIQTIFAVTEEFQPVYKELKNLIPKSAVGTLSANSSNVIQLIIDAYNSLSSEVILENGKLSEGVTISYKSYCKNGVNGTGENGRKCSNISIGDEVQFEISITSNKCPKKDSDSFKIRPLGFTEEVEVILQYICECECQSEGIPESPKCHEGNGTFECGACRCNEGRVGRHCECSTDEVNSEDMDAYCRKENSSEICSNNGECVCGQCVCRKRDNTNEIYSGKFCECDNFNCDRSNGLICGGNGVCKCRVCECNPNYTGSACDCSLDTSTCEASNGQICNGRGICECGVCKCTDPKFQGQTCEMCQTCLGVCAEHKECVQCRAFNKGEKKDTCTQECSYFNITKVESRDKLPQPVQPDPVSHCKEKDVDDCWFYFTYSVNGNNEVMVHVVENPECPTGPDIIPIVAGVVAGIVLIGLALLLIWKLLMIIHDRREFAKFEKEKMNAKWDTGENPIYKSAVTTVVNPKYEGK

SMILES | IC50 [1] [nM] | IC50 [2] [nM]
O=C(N[C@@H](Cc1ccc(-n2c(=O)[nH]c3ccccc3c2=O)cc1)C(=O)O)c1c(Cl)cccc1Cl [Example 2] | 240 | 9.2
CCn1c(=O)n(-c2ccc(C[C@H](NC(=O)c3c(Cl)cccc3Cl)C(=O)O)cc2)c(=O)c2ccccc21 [Example 3] | 66 | 3.5
O=C(O)Cn1c(=O)n(-c2ccc(C[C@H](NC(=O)c3c(Cl)cccc3Cl)C(=O)O)cc2)c(=O)c2ccccc21 [Example 7] | 110 | 22
COc1cccc(OC)c1C(=O)N[C@@H](Cc1ccc(-n2c(=O)c3ccccc3n(C)c2=O)cc1)C(=O)O [Example 9] | 440 | 94
Cn1c(=O)n(-c2ccc(C[C@H](NC(=O)C3CCCCC3)C(=O)O)cc2)c(=O)c2ccccc21 [Example 12] | 490 | 19
Cn1c(=O)n(-c2ccc(C[C@H](NC(=O)[C@H]3CC[C@H](C(=O)O)CC3)C(=O)O)cc2)c(=O)c2ccccc21 [Example 13] | 220 | 4.5
CCSc1nc2ccccc2c(=O)n1-c1ccc(C[C@H](NC(=O)c2c(Cl)cccc2Cl)C(=O)O)cc1 [Example 17] | 2100 | 43
CSc1nc2ccccc2c(=O)n1-c1ccc(C[C@H](NC(=O)c2c(Cl)cccc2Cl)C(=O)O)cc1 [Example 18] | 1900 | 23
COc1ccc(C(=O)CSc2nc3ccccc3c(=O)n2-c2ccc(C[C@H](NC(=O)c3c(Cl)cccc3Cl)C(=O)O)cc2)cc1 [Example 23] | 7240 | 18
Cc1nc2ccccc2c(=O)n1-c1ccc(C[C@H](NC(=O)c2c(Cl)cccc2Cl)C(=O)O)cc1 [Example 31] | 630 | 50
CCc1nc2ccccc2c(=O)n1-c1ccc(C[C@H](NC(=O)c2c(Cl)cccc2Cl)C(=O)O)cc1 [Example 32] | 2420 | 64
CCCCc1nc2ccccc2c(=O)n1-c1ccc(C[C@H](NC(=O)c2c(Cl)cccc2Cl)C(=O)O)cc1 [Example 34] | 2210 | 42
O=C(N[C@@H](Cc1ccc(-n2c(-c3ccccc3)nc3ccccc3c2=O)cc1)C(=O)O)c1c(Cl)cccc1Cl [Example 35] | 1700 | 68
COc1nc2ccccc2c(=O)n1-c1ccc(C[C@H](NC(=O)c2c(Cl)cccc2Cl)C(=O)O)cc1 [Example 36] | 490 | 6.6
CCOc1nc2ccccc2c(=O)n1-c1ccc(C[C@H](NC(=O)c2c(Cl)cccc2Cl)C(=O)O)cc1 [Example 37] | 200 | 19
CCCCc1nc2ccccc2c(=O)n1-c1ccc(C[C@H](NC(=O)c2c(C)cccc2C)C(=O)O)cc1 [Example 41] | 3410 | 86
Cc1cccc(C)c1C(=O)N[C@@H](Cc1ccc(-n2c(-c3ccccc3)nc3ccccc3c2=O)cc1)C(=O)O [Example 42] | 6730 | 92
Cc1cccc(C)c1C(=O)N[C@@H](Cc1ccc(-n2c(CCl)nc3ccccc3c2=O)cc1)C(=O)O [Example 44] | 4230 | 79
O=C(N[C@@H](Cc1ccc(-n2c(=O)[nH]c3c(Cl)cccc3c2=O)cc1)C(=O)O)c1c(Cl)cccc1Cl [Example 45] | 340 | 10.2
COc1cccc2c(=O)n(-c3ccc(C[C@H](NC(=O)c4c(Cl)cccc4Cl)C(=O)O)cc3)c(=O)[nH]c12 [Example 46] | 195 | 6.8
O=C(N[C@@H](Cc1ccc(-n2c(=O)[nH]c3ccc(Cl)cc3c2=O)cc1)C(=O)O)c1c(Cl)cccc1Cl [Example 47] | 1980 | 76
COc1ccc2[nH]c(=O)n(-c3ccc(C[C@H](NC(=O)c4c(Cl)cccc4Cl)C(=O)O)cc3)c(=O)c2c1 [Example 48] | 1800 | 28
O=C(N[C@@H](Cc1ccc(-n2c(=O)[nH]c3cc(C(F)(F)F)ccc3c2=O)cc1)C(=O)O)c1c(Cl)cccc1Cl [Example 49] | 1180 | 62.1
Cc1cccc2c(=O)n(-c3ccc(C[C@H](NC(=O)c4c(Cl)cccc4Cl)C(=O)O)cc3)c(=O)[nH]c12 [Example 50] | 1770 | 7.9
COc1cc2[nH]c(=O)n(-c3ccc(C[C@H](NC(=O)c4c(Cl)cccc4Cl)C(=O)O)cc3)c(=O)c2cc1OC [Example 51] | 1180 | 30
O=C(N[C@@H](Cc1ccc(-n2c(=O)[nH]c3ccc(F)cc3c2=O)cc1)C(=O)O)c1c(Cl)cccc1Cl [Example 52] | 1310 | 55.3

From patent US8426588B2, “Phenylalanine derivatives” (Ajinomoto Co, Inc., priority 2000, dated 2013)
